Data as given in ChEMBL document CHEMBL1201862, “PubChem BioAssay data set” (2004).
Activity calls are given as the source filed them.

Legend:
Bcl-2-like protein 10 = Bcl-2-like protein 10 (Homo sapiens, UniProt Q9HD36); experiment: Bcl-B/TR3 peptide binding disruption – biochemical, fluorescence polarization, FITC-TR3 peptide, selectivity assay for Bfl-1 inhibitor project, primary screen (AID 748);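 note: fluorescence polarization from a fluorescein-labelled TR3 peptide binding purified Bcl-B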
Large T antigen = Large T antigen (Simian virus 40, UniProt P03070); format: functional, Betapolyomavirus macacae;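 note: Confirmatory-stage PubChem screen for compounds that inhibit SV40 T antigen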
Sequence of Large T antigen (P03070 whole entry): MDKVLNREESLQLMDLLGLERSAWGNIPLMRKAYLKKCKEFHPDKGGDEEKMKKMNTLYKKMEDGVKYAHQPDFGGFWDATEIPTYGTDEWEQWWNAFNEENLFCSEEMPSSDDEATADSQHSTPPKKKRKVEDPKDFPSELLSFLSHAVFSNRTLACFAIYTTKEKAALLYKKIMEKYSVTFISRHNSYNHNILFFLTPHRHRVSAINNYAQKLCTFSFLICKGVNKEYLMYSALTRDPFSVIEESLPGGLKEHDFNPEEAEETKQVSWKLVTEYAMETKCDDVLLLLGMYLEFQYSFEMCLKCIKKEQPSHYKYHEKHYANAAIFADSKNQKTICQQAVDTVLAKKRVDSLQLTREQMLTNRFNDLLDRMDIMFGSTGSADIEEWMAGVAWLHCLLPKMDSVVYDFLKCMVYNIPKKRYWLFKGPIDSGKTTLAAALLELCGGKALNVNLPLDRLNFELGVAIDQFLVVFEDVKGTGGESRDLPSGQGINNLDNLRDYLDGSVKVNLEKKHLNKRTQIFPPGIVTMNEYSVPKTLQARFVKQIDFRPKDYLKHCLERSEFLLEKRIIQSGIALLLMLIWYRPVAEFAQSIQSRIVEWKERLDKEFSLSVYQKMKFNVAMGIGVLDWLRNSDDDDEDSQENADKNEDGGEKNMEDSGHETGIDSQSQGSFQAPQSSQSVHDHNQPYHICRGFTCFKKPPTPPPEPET

Caspase-3 = target: T1, Caspase-3 (Homo sapiens, UniProt P42574); format: functional;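 note: Dose-response selectivity test against caspase-3 for candidate inhibitors of sentrin-specific proteases (SENPs)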
T1 sequence (P42574 whole entry): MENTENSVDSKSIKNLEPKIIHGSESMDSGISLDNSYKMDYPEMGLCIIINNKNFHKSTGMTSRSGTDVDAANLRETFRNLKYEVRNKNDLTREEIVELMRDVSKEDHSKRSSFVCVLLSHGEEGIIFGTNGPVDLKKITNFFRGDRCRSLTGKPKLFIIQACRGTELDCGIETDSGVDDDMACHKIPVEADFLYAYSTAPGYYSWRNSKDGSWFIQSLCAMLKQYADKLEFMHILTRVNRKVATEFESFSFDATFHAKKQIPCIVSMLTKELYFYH

[1] = target: T2, Sentrin-specific protease 7 (Homo sapiens, UniProt Q9BQF6); format: functional;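 note: Luminescence-based dose-response confirmation of ultra-high-throughput screening hits, measuring inhibition of SENP7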
T2 sequence (Q9BQF6 whole entry): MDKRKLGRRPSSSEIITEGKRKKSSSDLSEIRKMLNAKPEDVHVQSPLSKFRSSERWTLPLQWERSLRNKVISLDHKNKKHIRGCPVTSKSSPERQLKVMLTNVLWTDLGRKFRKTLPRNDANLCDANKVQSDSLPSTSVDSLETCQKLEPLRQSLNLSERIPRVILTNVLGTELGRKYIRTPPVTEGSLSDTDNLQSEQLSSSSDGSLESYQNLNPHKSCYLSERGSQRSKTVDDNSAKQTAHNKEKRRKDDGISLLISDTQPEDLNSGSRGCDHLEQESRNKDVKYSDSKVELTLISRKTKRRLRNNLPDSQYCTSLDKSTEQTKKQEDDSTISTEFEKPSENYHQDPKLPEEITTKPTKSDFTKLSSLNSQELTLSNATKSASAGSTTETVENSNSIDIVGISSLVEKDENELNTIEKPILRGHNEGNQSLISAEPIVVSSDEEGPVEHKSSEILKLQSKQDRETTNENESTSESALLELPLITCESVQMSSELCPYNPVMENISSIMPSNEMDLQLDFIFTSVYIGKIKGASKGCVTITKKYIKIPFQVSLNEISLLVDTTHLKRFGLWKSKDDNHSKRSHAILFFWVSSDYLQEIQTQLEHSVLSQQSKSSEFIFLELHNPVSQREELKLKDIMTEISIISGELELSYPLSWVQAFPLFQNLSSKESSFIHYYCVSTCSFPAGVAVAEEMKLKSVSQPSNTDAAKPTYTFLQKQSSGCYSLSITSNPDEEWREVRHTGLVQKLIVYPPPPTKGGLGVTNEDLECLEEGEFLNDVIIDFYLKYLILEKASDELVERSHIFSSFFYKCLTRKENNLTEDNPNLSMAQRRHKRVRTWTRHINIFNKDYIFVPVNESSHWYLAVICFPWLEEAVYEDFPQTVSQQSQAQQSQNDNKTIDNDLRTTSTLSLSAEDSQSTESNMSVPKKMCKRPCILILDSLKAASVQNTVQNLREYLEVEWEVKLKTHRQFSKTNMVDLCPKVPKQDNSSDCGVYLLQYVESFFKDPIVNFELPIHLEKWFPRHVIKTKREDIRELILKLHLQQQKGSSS

[2] = target: T3, Sentrin-specific protease 6 (Homo sapiens, UniProt Q9GZR1); format: functional;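 note: Luminescence-based dose-response confirmatory assay of SENP6 inhibition, following up an ultra-high-throughput screen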
T3 sequence (Q9GZR1 whole entry): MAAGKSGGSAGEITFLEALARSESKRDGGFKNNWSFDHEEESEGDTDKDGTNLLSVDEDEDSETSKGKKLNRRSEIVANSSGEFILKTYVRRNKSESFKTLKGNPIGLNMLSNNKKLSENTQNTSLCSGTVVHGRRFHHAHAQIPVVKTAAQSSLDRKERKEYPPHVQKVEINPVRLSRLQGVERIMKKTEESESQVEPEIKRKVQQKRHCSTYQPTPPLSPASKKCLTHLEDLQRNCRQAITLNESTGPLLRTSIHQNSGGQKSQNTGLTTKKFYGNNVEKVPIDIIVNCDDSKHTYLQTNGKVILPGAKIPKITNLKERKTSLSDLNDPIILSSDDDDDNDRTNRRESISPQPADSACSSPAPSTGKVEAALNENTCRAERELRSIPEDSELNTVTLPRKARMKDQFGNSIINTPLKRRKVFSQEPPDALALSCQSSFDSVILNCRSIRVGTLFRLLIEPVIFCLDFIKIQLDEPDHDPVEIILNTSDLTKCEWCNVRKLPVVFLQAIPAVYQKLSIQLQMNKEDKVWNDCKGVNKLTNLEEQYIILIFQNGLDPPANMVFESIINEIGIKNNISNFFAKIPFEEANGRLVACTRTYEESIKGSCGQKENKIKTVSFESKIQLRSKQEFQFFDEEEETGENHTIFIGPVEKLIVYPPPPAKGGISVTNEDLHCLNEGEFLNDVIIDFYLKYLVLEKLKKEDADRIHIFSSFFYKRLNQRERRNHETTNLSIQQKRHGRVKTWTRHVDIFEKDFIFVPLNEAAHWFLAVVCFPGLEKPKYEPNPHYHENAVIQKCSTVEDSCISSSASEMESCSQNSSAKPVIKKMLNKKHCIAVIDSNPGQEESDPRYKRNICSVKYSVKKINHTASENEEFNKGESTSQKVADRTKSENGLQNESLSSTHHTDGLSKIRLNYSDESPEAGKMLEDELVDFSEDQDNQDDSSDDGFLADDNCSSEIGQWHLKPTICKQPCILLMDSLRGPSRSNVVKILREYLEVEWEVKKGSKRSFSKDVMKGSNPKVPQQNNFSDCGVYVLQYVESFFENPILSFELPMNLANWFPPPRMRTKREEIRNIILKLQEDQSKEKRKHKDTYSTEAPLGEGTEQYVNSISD

[3] = target: T4, Sentrin-specific protease 8 (Homo sapiens, UniProt Q96LD8); format: functional;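 note: luminescence read-out of SENP8 inhibition, dose-response confirmation following an ultra-high-throughput screen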
T4 sequence (Q96LD8 whole entry): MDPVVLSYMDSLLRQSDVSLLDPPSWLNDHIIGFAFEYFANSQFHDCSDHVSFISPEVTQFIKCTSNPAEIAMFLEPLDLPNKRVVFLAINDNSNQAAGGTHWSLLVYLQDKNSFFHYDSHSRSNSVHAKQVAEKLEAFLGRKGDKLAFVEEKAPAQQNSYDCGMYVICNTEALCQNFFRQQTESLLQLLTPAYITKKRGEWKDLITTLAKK

Mu-type opioid receptor = Mu-type opioid receptor (Homo sapiens, UniProt P35372); experiment: SAR Analysis of Antagonists of the MOR Receptor using an Image-Based Assay - Set 3. [Related pubchem assays (depositor defined):AID1777, AID1785, AID1786, AID1966, AID2133, AID2136, AID2284, AID2285, AID2420]; format: functional
Sequence of Mu-type opioid receptor (P35372 whole entry): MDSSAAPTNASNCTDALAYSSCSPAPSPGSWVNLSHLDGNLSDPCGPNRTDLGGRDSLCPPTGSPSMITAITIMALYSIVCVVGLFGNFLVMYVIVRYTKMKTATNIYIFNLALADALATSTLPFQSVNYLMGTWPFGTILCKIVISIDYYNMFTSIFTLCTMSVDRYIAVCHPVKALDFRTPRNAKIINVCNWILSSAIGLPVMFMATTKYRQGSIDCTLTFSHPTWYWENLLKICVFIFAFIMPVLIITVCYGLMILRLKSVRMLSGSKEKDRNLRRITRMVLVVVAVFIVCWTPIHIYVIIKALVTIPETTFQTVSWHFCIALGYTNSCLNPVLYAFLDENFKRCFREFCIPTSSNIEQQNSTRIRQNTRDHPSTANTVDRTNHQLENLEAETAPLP

[4] = target: Delta-type opioid receptor (Homo sapiens, UniProt P41143); experiment: SAR Analysis of Antagonists of the DOR Receptor using an Image-Based Assay - Set 3. [Related pubchem assays (depositor defined):AID1777, AID1785]; format: functional;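 note: U2OS cells expressing DOR1 and beta-arrestin GFP stimulated with 100 nM SNC80; imaging of GFP-tagged beta-arrestin moving into spots after receptor activation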
Sequence of Delta-type opioid receptor (P41143 whole entry): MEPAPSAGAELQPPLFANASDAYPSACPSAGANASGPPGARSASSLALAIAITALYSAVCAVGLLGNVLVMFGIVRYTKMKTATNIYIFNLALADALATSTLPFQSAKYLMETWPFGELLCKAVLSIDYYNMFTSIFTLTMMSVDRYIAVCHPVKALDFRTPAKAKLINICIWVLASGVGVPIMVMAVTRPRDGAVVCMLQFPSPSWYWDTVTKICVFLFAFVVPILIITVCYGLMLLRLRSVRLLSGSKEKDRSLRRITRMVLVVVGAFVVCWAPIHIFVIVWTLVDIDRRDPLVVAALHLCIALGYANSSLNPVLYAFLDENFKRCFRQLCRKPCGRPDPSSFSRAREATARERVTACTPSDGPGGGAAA

[5] = target: T5, Kappa-type opioid receptor (Homo sapiens, UniProt P41145); experiment: SAR analysis of small molecule antagonists of the kappa opioid receptor via a luminescent beta-arrestin assay - Set 3. [Related pubchem assays (depositor defined):AID1777, AID1778, AID1785, AID1786, AID1966, AID2133, AID2136, AID2285, AID2495]; format: functional
T5 sequence (P41145 whole entry): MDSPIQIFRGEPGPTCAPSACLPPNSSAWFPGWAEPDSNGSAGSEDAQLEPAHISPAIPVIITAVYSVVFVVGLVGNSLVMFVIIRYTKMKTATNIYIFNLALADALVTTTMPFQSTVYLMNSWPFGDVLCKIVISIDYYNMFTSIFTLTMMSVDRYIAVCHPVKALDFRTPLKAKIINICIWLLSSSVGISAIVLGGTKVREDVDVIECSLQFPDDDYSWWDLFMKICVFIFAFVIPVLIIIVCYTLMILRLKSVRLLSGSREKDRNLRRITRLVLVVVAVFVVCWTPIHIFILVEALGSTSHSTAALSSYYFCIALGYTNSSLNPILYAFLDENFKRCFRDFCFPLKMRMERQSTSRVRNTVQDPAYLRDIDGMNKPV

[6] = target: T5, Kappa-type opioid receptor; experiment: SAR analysis of Antagonists of the Kappa Opioid Receptor (KOR) using an Image-Based Assay - Set 3. [Related pubchem assays (depositor defined):AID1777, AID1785]; format: functional
CAAX prenyl protease 2 = CAAX prenyl protease 2 (Saccharomyces cerevisiae S288c, UniProt Q03530); format: biochemical
Sequence of CAAX prenyl protease 2 (Q03530 whole entry): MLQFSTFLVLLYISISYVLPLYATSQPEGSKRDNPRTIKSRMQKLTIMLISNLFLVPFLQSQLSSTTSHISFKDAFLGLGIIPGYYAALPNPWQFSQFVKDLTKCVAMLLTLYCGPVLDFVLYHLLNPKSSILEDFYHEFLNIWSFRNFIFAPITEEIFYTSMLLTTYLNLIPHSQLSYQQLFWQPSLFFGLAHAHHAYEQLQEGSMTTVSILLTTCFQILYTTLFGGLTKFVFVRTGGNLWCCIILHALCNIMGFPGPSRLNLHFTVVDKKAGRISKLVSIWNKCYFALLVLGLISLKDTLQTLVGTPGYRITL

[7] = target: Eukaryotic translation initiation factor 4H (Homo sapiens, UniProt Q15056); experiment: inhibitors of translation initiation factor eIF4H – SAR follow-up (AID 435011); format: functional
[8] = target: Polyadenylate-binding protein 1 (Homo sapiens, UniProt P11940); experiment: PABP inhibition in translation initiation, SAR follow-up (AID 435018); format: functional
Sequence of Polyadenylate-binding protein 1 (P11940 whole entry): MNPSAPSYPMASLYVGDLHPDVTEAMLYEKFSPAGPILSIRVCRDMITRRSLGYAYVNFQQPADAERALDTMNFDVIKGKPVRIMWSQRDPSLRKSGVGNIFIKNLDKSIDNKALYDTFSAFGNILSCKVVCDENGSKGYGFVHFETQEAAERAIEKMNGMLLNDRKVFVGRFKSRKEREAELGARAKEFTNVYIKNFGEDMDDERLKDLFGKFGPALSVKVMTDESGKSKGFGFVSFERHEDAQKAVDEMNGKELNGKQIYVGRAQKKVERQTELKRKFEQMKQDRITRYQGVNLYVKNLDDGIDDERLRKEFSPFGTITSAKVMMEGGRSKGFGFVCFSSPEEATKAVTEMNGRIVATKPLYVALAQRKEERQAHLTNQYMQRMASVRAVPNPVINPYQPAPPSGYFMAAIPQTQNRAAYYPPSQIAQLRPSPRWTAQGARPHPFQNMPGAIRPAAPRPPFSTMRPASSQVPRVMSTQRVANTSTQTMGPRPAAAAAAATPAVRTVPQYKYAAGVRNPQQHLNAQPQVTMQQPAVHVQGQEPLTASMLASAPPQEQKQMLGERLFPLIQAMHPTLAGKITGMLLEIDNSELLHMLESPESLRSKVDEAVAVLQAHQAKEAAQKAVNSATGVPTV

Sequence of Bcl-2-like protein 10 (Q9HD36 whole entry): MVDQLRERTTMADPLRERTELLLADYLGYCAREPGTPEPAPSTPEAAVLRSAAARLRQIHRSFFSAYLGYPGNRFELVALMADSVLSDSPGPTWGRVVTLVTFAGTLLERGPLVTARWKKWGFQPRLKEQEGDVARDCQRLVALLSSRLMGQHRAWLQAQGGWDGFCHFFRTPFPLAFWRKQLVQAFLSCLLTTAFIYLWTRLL

IC50 (Mu-type opioid receptor)	IC50 [4]	IC50 [5]	IC50 [6]	SMILES	IC50 [7]	IC50 [8]	further results
> 32 µM (inactive)	> 32 µM (inactive)	> 20 µM (inactive)	> 32 µM (inactive)	CN1CCN(CCCNC(=O)Cn2c(=O)c3cccn3c3cccnc32)CC1	–	–	–
> 32 µM (inactive)	> 32 µM (inactive)	> 20 µM (inactive)	> 32 µM (inactive)	O=C(NCCN1Cc2ccccc2C1)c1ccc(CNS(=O)(=O)c2ccc(Br)cc2)cc1	–	–	–

More lines, now with the values behind:

SMILES	IC50 (Mu-type opioid receptor)	IC50 [4]	IC50 [5]	IC50 [6]	IC50 [7]	IC50 [8]	further results
Cc1csc(N/N=C/c2ccc(O)c([N+](=O)[O-])c2)n1	–	–	–	–	–	–	IC50 (Bcl-2-like protein 10): > 100 µM (inactive); IC50 (Large T antigen): 22.1 µM (active); IC50 (Caspase-3): 3.15 µM (active); IC50 [1]: 4.19 µM (active); IC50 [2]: 9.25 µM (active); IC50 [3]: 8.45 µM (active)
O=S(=O)(c1ccccc1)c1nc(-c2ccco2)oc1N1CCCCC1	–	–	–	–	–	–	AC50 (CAAX prenyl protease 2): 7.38 µM (active)
CS(=O)(=O)c1ccccc1C(=O)Nc1cccc2ncccc12	–	–	–	–	16.1 µM (active)	20.2 µM (active)	–
O=C(Nc1ccccc1Cl)C1CCN(C(=O)c2cccs2)CC1	–	–	–	–	> 100 µM (inactive)	> 100 µM (inactive)	–
